Results: patent US20250188032A1, “NITROGEN-CONTAINING HETEROCYCLIC COMPOUNDS AND USES THEREOF” (BNH RESEARCH CO., LTD., priority 2022, published 2025)

Legend:
[1] = tested on: HDAC4, BDNF and GluN2B expression in C57BL/6J mice cortex; test: Western blotting of HDAC4, BDNF and GluN2B in mouse cortical tissue after administration; type: in vivo
Procedure: For preparation of thalamocortical (TC) slices, 9- to 10-week-old male C57BL/6J rodents (mice) were anesthetized with isoflurane. Then, the brains were rapidly cooled by transcardial perfusion with ice-cold sucrose-artificial cerebrospinal fluid (aCSF). The brains were removed and placed in ice-cold sucrose aCSF. Paracoronal slices were prepared at a 50° angle to the midline on a ramp at an angle of 10°. The slices were then incubated in aCSF for 30 minutes at 35° C. to recover.
Subsequently, the slices were incubated in aCSF for 1 to 4 hours at room temperature (23 to 25° C.) before being placed in the recording chamber for experiment. Standard aCSF contains saturated with 95% O2/5% CO2.
All electrophysiological experiments were conducted at 27 to 29° C. Rodent (mice) was perfused with […] a sucrose-based aCSF solution (4° C.) using gravity. The brain of the rodent (mice) was removed and cut into 400 urn at a 50° angle (mouse at a 55° angle) to attach the cut portion to the vibratome disc to be the bottom. Brain slice was incubated in Incubate aCSF solution at 35° C. for 30 minutes or Incubate aCSF solution at RT for 1 hour. Cortical tissue from mice was prepared according to protocol above then was homogenized and lysed for protein extraction. The protein lysate was prepared from the tissue with NP40(FNN0021, Invitrogen) protein lysis buffer containing protease & […] according to the manufacturer's instruction. Protein concentrations were determined using the BCA Protein Assay Kit (Pierce Biotechnology) with bovine serum albumin as a standard. Equal amounts of proteins (20 μg per lane) were separated by electrophoresis on 8% or 12% SDS-polyacrylamide gel, followed by blotting onto PVDF membranes (GE Healthcare). To block nonspecific binding, the membranes were incubated for 1 h at room temperature in 5% non-fat dry milk in PBST (150 mM NaCl, 50 mM Tris, pH 7.4, 0.05% Tween 20). The following antibodies were incubated overnight at 4° C. in 2% blocking solution: Anti-HDAC4 (SAB4300413, Sigma-Aldrich), Anti-BDNF (ANT-010, Alomone Las), Anti-NMDAR2B (ab65783, abcam plc). Following the incubation with antibodies and several rinses in PBST, the membranes were incubated for 1 h with the mouse anti-rabbit IgG-HRP conjugated secondary anti-bodies (sc-2357, Santa Cruz). Each blot was subsequently re-probed with anti-β-actin antibody (sc-47778, Santa Cruz). Housekeeping protein β actin was detected as a normalization control. Antibodies used for methods described herein are as follows: […]

[2] = tested on: 293T cells; test: Cytotoxicity test (CCK-8 cell viability) in 293T cells; type: cell-based, human
[3] = oral, 1 mg/kg, 8-week-old C57BL/6J mice, sacrificed 2 days later, vs vehicle

## CC1CCC(C(=O)O)CN1C(=O)Cc1ccc(F)cc1Cl (racemic) [BnH12001, 1-(2-(2-chloro-4-fluorophenyl)acetyl)-6-methylpiperidine-3-carboxylic acid]
[1]; intraperitoneal administration
  HDAC4 protein expression in mice barrel cortex: significantly suppressed
[1]; oral administration
  HDAC4 protein expression in mice barrel cortex: significantly suppressed
[1]; oral and intraperitoneal administration, mice barrel cortex
  Duration of inhibitory effect on HDAC4 protein expression: ≥ 9 days
[2]; 0, 0.1, 1, 10, 100 μM, 293T
  Change in cell viability: no significant change in cell viability

## C[C@@H]1CC[C@H](C(=O)O)CN1C(=O)Cc1ccc(F)cc1Cl [BnH12001 enantiomer (3S,6R, 98%<), (3S,6R)-1-(2-(2-chloro-4-fluorophenyl)acetyl)-6-methylpiperidine-3-carboxylic acid]
[1]; [3]
  BDNF expression: significantly increased
  GluN2B expression: significantly increased
  HDAC4 expression: effectively degraded
[1]; oral, 1 mg/kg, 13-month-old C57BL/6J mice, sacrificed 2 days later, vs vehicle
  GluN2B expression: significantly increased
[2]; 10 uM, 24 hours co-incubation, 293T cell line, % of control
  Cell viability test results (CCK) 10 uM: 99%<
[2]; 100 uM, 24 hours co-incubation, 293T cell line, % of control
  Cell viability test results (CCK) 100 uM: 95%<
